Laboratory results: patent publication US6440459B1, “Paroxetine maleate polymorph and pharmaceutical compositions containing it” (Medichem, S.A., priority 1998, dated 2002)

Assay: Accelerated stability tests (storage at 40° C. and 75% Relative Humidity, HPLC analysis)
Type: physicochemical
Conditions: for Degradation in accelerated stability tests: high temperature and humidity conditions, periods of up to six months (summary statement); for Stability (degradation by HPLC) at the end of one month of storage / Stability (degradation by HPLC) at the end of six months of storage: solid in two-ply polythene bags, 40° C., 75% Relative Humidity, HPLC vs time of packaging
Procedure: Accelerated Stability Tests Samples of paroxetine maleate Form A and Form B were packaged in two-ply polythene bags and stored at 40° C. and 75% Relative Humidity. The samples were analyzed at the time of packaging by HPLC and were analyzed with the same technique at the end of one month and six months of storage.

Degradation in accelerated stability tests | Stability (degradation by HPLC) at the end of one month of storage | Stability (degradation by HPLC) at the end of six months of storage | Structure (SMILES)
absence of significant degradation | substantially unaltered | substantially unaltered | Fc1ccc([C@@H]2CCNC[C@H]2COc2ccc3c(c2)OCO3)cc1.O=C(O)/C=C\C(=O)O [Form B, (3S-trans)-3-[(1,3-benzodioxol-5-yloxy)methyl]-4-(4-fluorophenyl)piperidine acid maleate]
notable degradation | clear signs of degradation | high degree of degradation | Fc1ccc([C@@H]2CCNC[C@H]2COc2ccc3c(c2)OCO3)cc1.O=C(O)/C=C\C(=O)O [Form A, (3S-trans)-3-[(1,3-benzodioxol-5-yloxy)methyl]-4-(4-fluorophenyl)piperidine acid maleate]
